Experimental data as given in PMC11042424, “Development of a First-in-Class RIPK1 Degrader to Enhance Antitumor Immunity” (Research Square, 2024).
pIC50, pKi: −log10 of the molar value.

Target: T1, GST-tagged human RIPK1 (Homo sapiens, UniProt Q13546)
T1 construct: purchased SignalChem R07–11G-10
T1 sequence (Q13546 1-327 limits assumed): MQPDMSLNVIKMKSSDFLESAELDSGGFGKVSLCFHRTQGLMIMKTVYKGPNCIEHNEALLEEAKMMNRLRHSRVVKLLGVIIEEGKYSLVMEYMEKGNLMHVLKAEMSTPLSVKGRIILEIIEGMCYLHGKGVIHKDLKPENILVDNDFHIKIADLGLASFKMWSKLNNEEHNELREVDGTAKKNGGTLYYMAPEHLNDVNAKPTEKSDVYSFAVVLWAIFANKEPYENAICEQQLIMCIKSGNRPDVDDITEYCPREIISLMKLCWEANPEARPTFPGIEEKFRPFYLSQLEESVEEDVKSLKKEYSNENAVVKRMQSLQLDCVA
Experiment: TR-FRET biochemical binding assay for RIPK1
Experimental: Figure 2 LD4172, a RIPK1 PROTAC, induces potent and highly specific degradation of RIPK1 in a panel of cell lines. A, Chemical structures of RIPK1 PROTAC, LD4172, and its negative control, LD4172-NC. […] B, Quantification of RIPK1 levels in both Jurkat and B16F10 cells treated with LD4172 at indicated concentrations for 24 h, followed by Western blotting. C, DC50 and Dmax of LD4172 in various human and mouse cell lines. DC50, the drug concentration causing 50% protein degradation; Dmax, the maximum level of protein degradation. D, RIPK1 degradation kinetics induced by LD4172 treatment (1 μM) and resynthesis kinetics upon washout of LD4172 in both Jurkat and B16F10 cells. […] G, Time-resolved fluorescence resonance energy transfer (TR-FRET) based biochemical binding assay for RIPK1. […] In total, ~10,000 proteins were quantified in the proteomics experiment. […]
A time-resolved fluorescence resonance energy transfer (TR-FRET) assay was performed to evaluate the binding of the indicated compounds and RIPK1 by competition with a BODIPY-FL labeled RIPK1 tracer (Supplementary Information, T2I-488). […] The assay mixtures were incubated at room temperature in the dark for 120 min, and the signals were collected using a BioTek Synergy H1 microplate reader to measure the fluorescence emission ratio (I520 nm/I490 nm) of each well using a 340-nm excitation filter, a 100-μs delay, and a 200-μs integration time. […]

Q: Which results are given for `Cc1ncsc1-c1ccc([C@H](C)NC(=O)[C@@H]2C[C@@H](O)CN2C(=O)[C@@H](NC(=O)CCCCCCCCCCC(=O)NCCCn2cc(-c3ccc4c(c3)CCN4C(=O)Cc3cccc(OC(F)(F)F)c3)c3c(N)ncnc32)C(C)(C)C)cc1` [LD4172]?
A: pIC50 (2 hours incubation, n=3, read-out: IC50, Fig. 2G): 8.02; pKi (recombinant human RIPK1 protein): 8.32
